Results: PMC9945182 (Chemical Research in Toxicology, 2023)

Legend:
CYP2A6 [1] = molecular target: T1, CYP2A6 (Homo sapiens, UniProt P11509); format: biochemical; details: 10 μM inhibitor; nicotine substrate; CYP2A6 microsomes
T1 sequence (P11509 1-494): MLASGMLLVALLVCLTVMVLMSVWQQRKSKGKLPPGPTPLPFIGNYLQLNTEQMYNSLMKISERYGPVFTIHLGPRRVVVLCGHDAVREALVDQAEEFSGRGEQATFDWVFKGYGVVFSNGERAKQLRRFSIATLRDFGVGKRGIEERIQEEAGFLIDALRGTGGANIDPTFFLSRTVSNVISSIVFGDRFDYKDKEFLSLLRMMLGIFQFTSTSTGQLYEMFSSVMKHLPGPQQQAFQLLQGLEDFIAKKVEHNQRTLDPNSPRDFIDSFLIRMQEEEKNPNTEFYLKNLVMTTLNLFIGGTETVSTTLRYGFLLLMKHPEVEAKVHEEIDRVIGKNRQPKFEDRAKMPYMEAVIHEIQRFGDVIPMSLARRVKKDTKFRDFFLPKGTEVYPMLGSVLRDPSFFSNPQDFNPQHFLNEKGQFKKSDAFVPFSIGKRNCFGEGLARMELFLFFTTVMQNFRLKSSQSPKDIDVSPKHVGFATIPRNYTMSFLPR

CYP2A6 [2] = molecular target: T1, CYP2A6; format: biochemical; details: 10 μM inhibitor; nicotine substrate; CYP2A6 microsomes; vs 100% activity control
CYP2B6 = molecular target: T2, CYP2B6 (Homo sapiens, UniProt P20813); format: biochemical; details: human, microsomes from CYP2B6-overexpressing HEK293 cells, pH 7.4, probe nicotine (cotinine formation)
T2 sequence (P20813 1-491): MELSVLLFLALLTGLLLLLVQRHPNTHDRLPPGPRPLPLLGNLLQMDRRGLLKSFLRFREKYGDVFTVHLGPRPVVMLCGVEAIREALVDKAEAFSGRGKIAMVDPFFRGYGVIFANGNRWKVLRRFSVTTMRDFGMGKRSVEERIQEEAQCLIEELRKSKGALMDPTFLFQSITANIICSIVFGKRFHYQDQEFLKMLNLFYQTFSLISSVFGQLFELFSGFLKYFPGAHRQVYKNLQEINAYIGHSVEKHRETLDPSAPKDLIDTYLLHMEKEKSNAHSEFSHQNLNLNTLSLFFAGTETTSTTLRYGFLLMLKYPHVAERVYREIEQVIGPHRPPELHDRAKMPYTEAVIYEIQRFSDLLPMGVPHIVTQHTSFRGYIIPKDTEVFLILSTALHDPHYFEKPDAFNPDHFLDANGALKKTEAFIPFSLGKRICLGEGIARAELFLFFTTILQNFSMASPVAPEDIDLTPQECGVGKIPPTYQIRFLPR

UGT2B7 = molecular target: T3, UGT2B7 (Homo sapiens, UniProt P16662); format: biochemical; details: human, microsomes from UGT2B7-overexpressing HEK293 cells, pH 7.4, probe 3HC (30 mM), 3HC-Gluc formation
T3 sequence (P16662 24-529): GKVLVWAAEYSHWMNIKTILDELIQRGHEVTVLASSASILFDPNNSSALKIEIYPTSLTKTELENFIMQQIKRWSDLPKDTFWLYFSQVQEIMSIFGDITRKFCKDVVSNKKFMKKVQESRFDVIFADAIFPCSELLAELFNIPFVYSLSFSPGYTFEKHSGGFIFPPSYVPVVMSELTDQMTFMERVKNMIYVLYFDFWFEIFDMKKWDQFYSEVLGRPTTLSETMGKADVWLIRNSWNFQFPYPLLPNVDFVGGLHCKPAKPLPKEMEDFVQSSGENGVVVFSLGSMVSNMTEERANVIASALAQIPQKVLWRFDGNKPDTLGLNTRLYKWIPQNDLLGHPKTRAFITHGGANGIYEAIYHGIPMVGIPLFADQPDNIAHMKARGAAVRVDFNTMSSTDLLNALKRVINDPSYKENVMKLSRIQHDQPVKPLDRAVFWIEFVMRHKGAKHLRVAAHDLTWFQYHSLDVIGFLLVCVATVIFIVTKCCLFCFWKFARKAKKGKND

UGT2B17 = molecular target: T4, UGT2B17 (Homo sapiens, UniProt O75795); format: biochemical; details: human, microsomes from UGT2B17-overexpressing HEK293 cells, pH 7.4, probe 3HC (30 mM), 3HC-Gluc formation
T4 sequence (O75795 24-530): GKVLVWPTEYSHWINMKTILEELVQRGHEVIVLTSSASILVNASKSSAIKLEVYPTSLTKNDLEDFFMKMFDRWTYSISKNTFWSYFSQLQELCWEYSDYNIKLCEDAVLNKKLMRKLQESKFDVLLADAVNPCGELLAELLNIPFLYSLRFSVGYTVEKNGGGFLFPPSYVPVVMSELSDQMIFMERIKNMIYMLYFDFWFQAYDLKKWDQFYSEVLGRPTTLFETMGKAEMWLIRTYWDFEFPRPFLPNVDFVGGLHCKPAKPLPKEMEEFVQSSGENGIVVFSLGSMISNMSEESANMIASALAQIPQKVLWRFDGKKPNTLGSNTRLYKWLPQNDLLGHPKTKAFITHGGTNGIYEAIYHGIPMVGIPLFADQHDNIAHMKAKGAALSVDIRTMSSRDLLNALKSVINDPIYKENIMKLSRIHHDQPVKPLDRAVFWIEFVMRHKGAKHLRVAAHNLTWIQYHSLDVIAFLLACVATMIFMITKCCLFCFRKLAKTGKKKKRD

[3] = majority of tobacco users; cited from earlier work
CYP2A6 [4] = details: cited from earlier work

SMILES: N[C@@H]1C[C@H]1c1ccccc1 (racemic) [tranylcypromine]
- inhibition of nornicotine formation (CYP2A6 [1]): 95%
- inhibition of cotinine formation (CYP2A6 [2]): 70%

SMILES: COC(=O)[C@H](c1ccccc1Cl)N1CCc2sccc2C1 [clopidogrel]
- inhibition at 30 min, 50 µM (CYP2B6): 60%

SMILES: Cc1ccc(NC(=O)c2ccc(CN3CCN(C)CC3)cc2)cc1Nc1nccc(-c2cccnc2)n1 [imatinib]
- inhibition at 200 µM (UGT2B7): ≤ 65%
- inhibition at 200 µM (UGT2B17): ≤ 65%

SMILES: CN1CCC[C@H]1c1cccnc1 [nicotine]
- fraction of nicotine metabolized to cotinine by CYP2A6 [3]: greater than 70%

SMILES: C#CCN(C)[C@H](C)Cc1ccccc1 [selegiline]
- Ki (CYP2A6 [4]): 4.6 µM
